Experiment [1] deals with VR1 receptor. As to the kind of experiment: High throughput calcium imaging assay (Fura2, Flex Station) of VR1 antagonists, pH 5.1 stimulus. Type of experiment: cell-based. Conditions: 1 uM compound; inhibition of calcium ion influx induced by capsaicin stimulation.
In experiment [2] the target is T1, VR1 receptor (Rattus norvegicus, UniProt O35433).
T1 construct: Dorsal root ganglion (DRG) neurons were recovered from either neonatal or adult rats; endogenous in cells; host or cells: primary rat dorsal root ganglion neurons
T1 sequence (O35433 whole entry): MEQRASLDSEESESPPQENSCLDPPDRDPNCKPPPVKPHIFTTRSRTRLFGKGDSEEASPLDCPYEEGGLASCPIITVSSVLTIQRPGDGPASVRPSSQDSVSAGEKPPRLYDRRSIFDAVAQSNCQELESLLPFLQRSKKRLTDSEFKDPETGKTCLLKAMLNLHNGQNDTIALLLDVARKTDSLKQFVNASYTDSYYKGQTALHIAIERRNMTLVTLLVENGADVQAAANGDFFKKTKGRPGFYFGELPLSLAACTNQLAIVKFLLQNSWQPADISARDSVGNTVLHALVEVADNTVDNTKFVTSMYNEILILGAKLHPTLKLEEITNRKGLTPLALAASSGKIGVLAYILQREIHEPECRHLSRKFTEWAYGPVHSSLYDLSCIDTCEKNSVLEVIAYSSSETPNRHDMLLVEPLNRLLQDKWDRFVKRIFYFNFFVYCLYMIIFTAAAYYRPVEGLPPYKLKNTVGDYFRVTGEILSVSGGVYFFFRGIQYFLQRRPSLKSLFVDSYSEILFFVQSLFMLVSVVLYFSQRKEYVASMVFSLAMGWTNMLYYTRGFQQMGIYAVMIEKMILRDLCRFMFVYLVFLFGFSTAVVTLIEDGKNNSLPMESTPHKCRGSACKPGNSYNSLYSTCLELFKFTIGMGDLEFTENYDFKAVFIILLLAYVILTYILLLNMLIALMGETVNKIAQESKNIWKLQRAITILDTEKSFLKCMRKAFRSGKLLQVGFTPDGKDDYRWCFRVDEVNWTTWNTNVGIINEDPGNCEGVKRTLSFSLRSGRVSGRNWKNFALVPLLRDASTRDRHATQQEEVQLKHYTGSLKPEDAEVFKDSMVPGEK
As to the kind of experiment: Whole-cell patch clamp electrophysiology, capsaicin induced current in DRG neurons. Type of experiment: cell-based. As for the experimental part:
Dorsal root ganglion (DRG) neurons were recovered from either neonatal or adult rats and plated onto poly-D-lysine coated glass coverslips. The plated neurons were transferred into a chamber to allow drug solutions to be added to the cells using a computer-controlled solenoid-valve based perfusion system. The cells were imaged using standard DIC optics. Cells were patched using finely-pulled glass electrodes. Voltage-clamp electrophysiology experiments were carried out using an Axon Instruments Multiclamp amplified controlled by pCLAMP8 software.
The cells were placed into a whole-cell voltage clamp and help at a voltage of −80 mV while monitoring the membrane current in gap-free recording mode. 500 nM capsaicin was added for 30 seconds as a control. Test compounds at various concentrations at ranging from (10-1000 nM) were added to the cells for 1 minute prior to a 30 second capsaicin application. Differences between control experiments and drug positive capsaicin experiments were used to determine the efficacy of each test compound. All compounds that inhibited capsaicin induced current greater than 50% were considered positives.

The inhibition is the share of the control response that was lost under treatment. Read a high inhibition as strong suppression.

As for `CC(C)(C)c1ccc(NC(=O)c2ccc(-c3ncccc3Cl)cc2)cc1` [Compound 24], the “% Inhibition @ 1 uM” value in the experiment with VR1 receptor [1] was “+ + + + (compound exhibited 75% or greater inhibition of calcium ion influx induced by capsaicin stimulation)”. On VR1 receptor [2] (20 nM, 40 nM, 100 nM and 200 nM), the “dose response of inhibiting a capsaicin induced calcium ion influx (FIG. 4)” value is “increasing effectiveness”. On VR1 receptor [2] (DRG neuron, 200 nM compound, treatment time 25 seconds, 500 nM capsaicin, rat DRG neurons, -80 mV), this molecule showed an inhibition at 0.2 µM of 100%.
With `O=C(Nc1ccccc1)c1ccc(-c2ncccc2Cl)cc1` [Compound 3], the “% Inhibition @ 1 uM” value in the experiment on VR1 receptor [1] is recorded as “+ (compound exhibited 0-25% inhibition of calcium ion influx induced by capsaicin stimulation)”.
For the molecule `CCCc1ccccc1NC(=O)c1ccc(-c2ncccc2Cl)c(F)c1` [Compound 118], the “% Inhibition @ 1 uM” value in the experiment on VR1 receptor [1] is on record as “+ (compound exhibited 0-25% inhibition of calcium ion influx induced by capsaicin stimulation)”.
As for `CC1CCCc2ccc(NC(=O)c3ccc(-c4ncccc4Cl)c(F)c3)cc21` (stereo not shown) [Compound 186], the “% Inhibition @ 1 uM” value with VR1 receptor [1] is “+ (compound exhibited 0-25% inhibition of calcium ion influx induced by capsaicin stimulation)”.
For the molecule `COc1cc(C(=O)Nc2cccc(C#N)c2)ccc1-c1ncccc1Cl` [Compound 201], the “% Inhibition @ 1 uM” value in the experiment with VR1 receptor [1] was “+ + + + (“+ + + +” compound exhibited 75% or greater inhibition of calcium ion influx induced by capsaicin stimulation.)”.

These data come from patent US20050197364A1, “Amide compounds as ion channel ligands and uses thereof” (priority 2003, published 2005).
